Results published in ChEMBL document CHEMBL1201862, “PubChem BioAssay data set” (2004).
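A five-concentration, 48-hour dose response in 96-well plates underlies each endpoint, interpolated linearly between surrounding concentrations. GI50: concentration for 50% inhibition of growth.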 Activity calls are given as the source filed them. Rule as the data show it: active = GI50 up to about 1.1 µM and inactive = higher.

Columns and labels:
Experiment in all cases: growth of human tumour cells (NCI), 48 h
RXF 393 = system: RXF 393
EKVX = system: EKVX
CCRF-CEM = system: CCRF-CEM
SW-620 = system: SW-620
SK-OV-3 = system: SK-OV-3
SNB-75 = system: SNB-75
NCI-H226 = system: NCI-H226
HOP-92 = system: HOP-92
OVCAR-5 = system: OVCAR-5
K562 = system: K562
OVCAR-3 = system: OVCAR-3
NCI-H460 = system: NCI-H460
NCI-H522 = system: NCI-H522
UACC-62 = system: UACC-62
TK-10 = system: TK-10
COLO 205 = system: COLO 205
SK-MEL-5 = system: SK-MEL-5
LOX IMVI = system: LOX IMVI
SF-295 = system: SF-295
Malme-3M = system: Malme-3M

| SMILES | GI50 (RXF 393) | GI50 (EKVX) | GI50 (CCRF-CEM) | GI50 (SW-620) | GI50 (SK-OV-3) | GI50 (SNB-75) | GI50 (NCI-H226) | GI50 (HOP-92) | GI50 (OVCAR-5) | GI50 (K562) | GI50 (OVCAR-3) | GI50 (NCI-H460) | GI50 (NCI-H522) | GI50 (UACC-62) | GI50 (TK-10) | GI50 (COLO 205) | GI50 (SK-MEL-5) | GI50 (LOX IMVI) | GI50 (SF-295) | GI50 (Malme-3M) |
| --- | --- | --- | --- | --- | --- | --- | --- | --- | --- | --- | --- | --- | --- | --- | --- | --- | --- | --- | --- | --- |
| CSc1nc(Cl)c2c(n1)Sc1nc3cc4c(cc3n1C2O)OCCO4 (stereo not given) | 0.354 µM (active) | 15.2 µM (inactive) | 0.0246 µM (active) | 0.0153 µM (active) | 0.445 µM (active) | 1.74 µM (inactive) | 0.276 µM (active) | 0.875 µM (active) | 4.03 µM (inactive) | 0.0318 µM (active) | 0.137 µM (active) | 0.0897 µM (active) | 0.0382 µM (active) | 0.125 µM (active) | 0.962 µM (active) | 0.0509 µM (active) | 0.0703 µM (active) | < 0.0162 µM (active) | 0.379 µM (active) | 0.847 µM (active) |
| COC(=O)[C@@H]1C(=O)O[C@@H](c2ccc3c(c2)OCO3)[C@@H]1C(=O)OC.COC(=O)[C@H]1C(=O)O[C@@H](c2ccc3c(c2)OCO3)[C@@H]1C(=O)OC | > 100 µM (inactive) | > 100 µM (inactive) | > 100 µM (inactive) | > 100 µM (inactive) | > 100 µM (inactive) | > 100 µM (inactive) | > 100 µM (inactive) | 43.8 µM (inactive) | > 100 µM (inactive) | > 100 µM (inactive) | > 100 µM (inactive) | > 100 µM (inactive) | > 100 µM (inactive) | > 100 µM (inactive) | > 100 µM (inactive) | > 100 µM (inactive) | > 100 µM (inactive) | > 100 µM (inactive) | > 100 µM (inactive) | > 100 µM (inactive) |
| COC(=O)c1ccccc1C1CN=NC12Cc1cc(C)ccc1C2=O (stereo not given) | > 100 µM (inactive) | > 100 µM (inactive) | > 100 µM (inactive) | > 100 µM (inactive) | > 100 µM (inactive) | 71 µM (inactive) | > 100 µM (inactive) | 43.2 µM (inactive) | > 100 µM (inactive) | 86.9 µM (inactive) | 57 µM (inactive) | > 100 µM (inactive) | 63.8 µM (inactive) | > 100 µM (inactive) | 16.6 µM (inactive) | > 100 µM (inactive) | > 100 µM (inactive) | 36.4 µM (inactive) | > 100 µM (inactive) | > 100 µM (inactive) |
| C=CCNC1=C2C[C@@H](C)C[C@@H](OC)C(OC(=O)CCCN(C)C)[C@H](C)/C=C(\C)[C@@H](OC(N)=O)[C@H](OC)/C=C\C=C(/C)C(=O)NC(=CC1=O)C2=O (stereo not given in full) | 3.98 µM (inactive) | 13.1 µM (inactive) | 8.95 µM (inactive) | 4.48 µM (inactive) | 2.37 µM (inactive) | 10.9 µM (inactive) | 14.6 µM (inactive) | 17.7 µM (inactive) | 15.2 µM (inactive) | 4.06 µM (inactive) | 3.3 µM (inactive) | 2.99 µM (inactive) | 8.07 µM (inactive) | 12.4 µM (inactive) | 11.6 µM (inactive) | 2.82 µM (inactive) | 2.51 µM (inactive) | 10.1 µM (inactive) | 7.57 µM (inactive) | 4.16 µM (inactive) |
| Cc1cc(Cl)cc2c1NC(=O)C2=O.O=C(c1ccccc1)C(F)(F)F | 73.3 µM (inactive) | 49 µM (inactive) | 17.2 µM (inactive) | 72.8 µM (inactive) | > 100 µM (inactive) | 41.1 µM (inactive) | > 100 µM (inactive) | 52.6 µM (inactive) | > 100 µM (inactive) | 32.4 µM (inactive) | 35.3 µM (inactive) | 70.5 µM (inactive) | 24.7 µM (inactive) | 19.9 µM (inactive) | 57.5 µM (inactive) | 57.7 µM (inactive) | 41.7 µM (inactive) | 15.3 µM (inactive) | 56.2 µM (inactive) | 45.6 µM (inactive) |
